In data set [1] the test system is A17 variant with Y181C plus K103N mutations in RT. Put plainly: microbe, parasite or virus in culture. The class given is cell-based, HIV-1. Conditions: for effective concentrations against NNRTI-resistant HIV-1 isolate A17 variant (in words): both NNRTI-resistant isolates.
Data set [2] concerns human peripheral blood mononuclear cells (PBMC). The data set can be described thus: Cell viability / cytotoxicity in PBMC. The data set is classed as cell-based. The note with it: for CC50: cytotoxic concentration, PBMC viability. The method, then: (§1) Normal human peripheral blood mononuclear cells (PBMNC) from HIV-negative donors were cultured 72 hours in RPMI 1640 supplemented with 20% (v/v) heat-inactivated fetal bovine serum (FBS), 3% interleukin-2, 2 mM L-glutamine, 25 mM HEPES, 2 g/L NaHCO3, 50 μg/mL gentamicin, and 4 μg/mL phytohemagglutinin prior to exposure to the HIV-1 strain HTLVIIIB. The cells were then infected with virus at a multiplicity of infection (MOI) of 0.1 during a 1-hour adsorption period at 37° C. in a humidified 5% CO2 atm. Subsequently, cells were cultured in 96-well microtiter plates (100 μl/well; 2×10^6 cells/mL) in the presence of various inhibitor concentrations. Aliquots of culture supernatants were removed from the wells on the 7th day after infection for p24 antigen assays. The applied p24 enzyme immunoassay (EIA) was the unmodified kinetic assay commercially available from Coulter Corporation/Immunotech, Inc. (Westbrooke, Me.), which utilizes a murine mAb to HIV core protein coated onto microwell strips to which the antigen present in the test culture supernatant samples binds. Percent viral inhibition was calculated by comparing the p24 values from the test substance-treated infected cells with p24 values from untreated infected cells (i.e., virus controls). The effects of various treatments on cell viability were also examined and the results were expressed as the cytotoxic concentration (CC)50 values. The selectivity indices (SI) were calculated using the formula: SI=CC50/IC50.

In data set [3] the test system is NNRTI-resistant HIV-1 strain A17 with a Y181C mutation in RT. Put plainly: microbe, parasite or virus in culture. The class given is cell-based. Conditions: for effective concentrations against NNRTI-resistant HIV-1 isolate A17 (in words): both NNRTI-resistant isolates.
In a further data set the test system is HIV-1 strain HTLVIIIB
The data set can be described thus: Inhibition of HIV-1 HTLVIIIB replication in PBMC (p24 antigen EIA). The data set is classed as cell-based. The note with it: for pIC50: HIV-1 HTLVIIIB in human PBMC, p24 on day 7, read-out: IC50 HTLVHIB. The method, then:
as §1

[4] abbreviates: NNRTI-resistant HIV, A17 variant (Y181C plus K103N), read-out: IC50 A17 variant.
[5] abbreviates: NNRTI-resistant HIV, A17 (Y181C), read-out: IC50 A17.
The mark [6] stands for this setting: Human immunodeficiency virus 1, read-out: IC50 A17 variant.
[7] abbreviates: Human immunodeficiency virus 1, read-out: IC50 A17.
[8] abbreviates: Human immunodeficiency virus 1, 168 h.

pIC50: −log10 of the molar value. Like-named read-outs stand apart in the source and are kept apart here.

With “N-[2-(1-Cyclohexenylethyl)]-N′-[2-(thiazolyl)]thiourea [Compound 2]”, the pIC50 (commonly the negative decadic logarithm of the IC50, by convention in mol/L) is < 4.00 in data set [1] (setting [4]), 6.05 in data set [3] (setting [5]) and 8.15 in the data set on HIV-1 strain HTLVIIIB. Moreover, in data set [2], it took 4 µM to reach half-maximal cytotoxicity (CC50).
For “N-[2-(2-Piperdine)ethyl]-N′-[2-(thiazolyl)]thiourea [Compound 9]”, the pIC50 with HIV-1 strain HTLVIIIB was < 4.00.
For “N-[3-(Pyrrolidinone)propyl]-N′-[2-(thiazolyl)]thiourea [Compound 12]”, half-maximal cytotoxicity in data set [2] (CC50) was put at 18 µM. Moreover, the pIC50 in the data set on HIV-1 strain HTLVIIIB is 5.05.
Turning to `CC(C)Nc1cccnc1N1CCN(C(=O)c2cc3cc(NS(C)(=O)=O)ccc3[nH]2)CC1` [Delavirdine, reference compound], the pIC50 in data set [1] (setting [6]) was < 4.00; in data set [3] (setting [7]) it was 4.30; in the data set on HIV-1 strain HTLVIIIB (setting [8]) it was 8.05.
For “N-[2-(2-Thiophenylethyl)]-N′-[2-(thiazolyl)]thiourea [Compound 1]”, the CC50 (commonly the concentration that lowers cell viability or growth by half) in data set [2] came out at 71 µM. The pIC50 in data set [3] (setting [5]) is < 4.00; in the data set on HIV-1 strain HTLVIIIB it was > 9.00. Further, the “IC50 values, inhibition of HIV-1 replication (in words)” value (“IC50 values, inhibition” below) in the data set with HIV-1 strain HTLVIIIB is listed as “subnanomolar”.
Regarding “N-[1-(1-Adamantyl)methyl]-N′-[2-(thiazolyl)]thiourea [Compound 5]”, the “effective concentrations against NNRTI-resistant HIV-1 isolate A17 variant (in words)” value in data set [1] is “nanomolar to low micromolar”. In addition, the CC50 in data set [2] amounted to 40 µM. In addition, the pIC50 in data set [3] (setting [5]) was 6.22. The “effective concentrations against NNRTI-resistant HIV-1 isolate A17 (in words)” value in data set [3] is on record as “nanomolar to low micromolar”. Besides, in the data set on HIV-1 strain HTLVIIIB, the “IC50 values, inhibition” value was “subnanomolar” and the pIC50 is > 9.00.
With `Cc1ccnc2c1NC(=O)c1cccnc1N2C1CC1` [Nevirapine, reference compound], the figures for the pIC50 (in data set [1] (setting [6]); in data set [3] (setting [7]); in the data set with HIV-1 strain HTLVIIIB (setting [8])) were < 4.00, < 4.00 and 7.47, respectively.
For the compound “N-[3-(2-Imidazole)propyl]-N′-[2-(thiazolyl)]thiourea [Compound 7]”, the pIC50 in data set [1] (setting [4]) was < 4.00; in data set [3] (setting [5]), < 4.00; in the data set on HIV-1 strain HTLVIIIB, > 9.00. The compound further came in with a CC50 in data set [2] of 35 µM. For the same compound, in the data set with HIV-1 strain HTLVIIIB, the “IC50 values, inhibition” value is on record as “subnanomolar”.
In turn, “N-[2-Pyridylethyl]-N′-[2-(thiazolyl)]thiourea [Compound 11]” yielded a CC50 in data set [2] of 100 µM. Besides, the pIC50 in the data set on HIV-1 strain HTLVIIIB is 6.00.
As for “N-[2-(Phenoxyethyl)]-N′-[2-(thiazolyl)]thiourea [Compound 3]”, in data set [1] (setting [4]), the pIC50 is < 4.00. In data set [2], the CC50 was > 100 µM. In the data set on HIV-1 strain HTLVIIIB, the “IC50 values, inhibition” value is on record as “subnanomolar” and the pIC50 is > 9.00.
On to “N-[2-(4-Methylphenyl)ethyl]-N′-[2-(thiazolyl)]thiourea [Compound 4]”, for which the values for the pIC50 (in data set [1] (setting [4]); in the data set with HIV-1 strain HTLVIIIB) were < 4.00 and 7.15, respectively. In data set [2], the half-maximal cytotoxic concentration (CC50) was > 100 µM.
In the case of “N-[2-(4-Hydroxyphenyl)ethyl]-N′-[2-(thiazolyl)]thiourea [Compound 10]”, the pIC50 in the data set with HIV-1 strain HTLVIIIB was < 4.00.
Consider “N-[1-(1-Furoylmethyl)]-N′-[2-(thiazolyl)]thiourea [Compound 6]”, for which the pIC50 in data set [1] (setting [4]) was 6.22. The “effective concentrations against NNRTI-resistant HIV-1 isolate A17 variant (in words)” value in data set [1] is “nanomolar to low micromolar”. Moreover, in data set [2], the “toxicity to PBMC (in words)” value is given as “minimally toxic” and the CC50 was > 100 µM. The “effective concentrations against NNRTI-resistant HIV-1 isolate A17 (in words)” value in data set [3] was “nanomolar to low micromolar”. In the data set on HIV-1 strain HTLVIIIB, the “IC50 values, inhibition” value is given as “subnanomolar” and the negative logarithm of the IC50 (pIC50) is > 9.00.
As to “N-[2-(2-Indole)ethyl]-N′-[2-(thiazolyl)]thiourea [Compound 8]”, the “effective concentrations against NNRTI-resistant HIV-1 isolate A17 variant (in words)” value in data set [1] is “nanomolar to low micromolar”. Moreover, in data set [2], the midpoint of cytotoxicity, the CC50, lay at 28 µM. Also, the “effective concentrations against NNRTI-resistant HIV-1 isolate A17 (in words)” value in data set [3] is recorded as “nanomolar to low micromolar”. Moreover, in the data set on HIV-1 strain HTLVIIIB, the “IC50 values, inhibition” value is “subnanomolar” and the pIC50 was > 9.00.

The values are drawn from patent US6960606B2, “Adamantyl Thiazole Thioureas” (Parker Hughes Institute, priority 2000, dated 2005).
